Key:
[1] = test system: P388 lymphocytic leukemia system; settings: in vivo; suggested a high therapeutic index; cited from earlier work
[2] = test system: P388, L1210, and LY5178 murine leukemic cell suspensions; settings: in vitro; P388 line the most sensitive; cited from earlier work
[3] = test system: human acute lymphoblastic leukemia line CEM; settings: in vitro; cited from earlier work
[4] = test system: Lewis lung carcinoma system; settings: in vivo; cited from earlier work
[5] = test system: B-16 melanocarcinoma system; settings: in vivo; cited from earlier work
[6] = more cytotoxic; cited from earlier work
L1210 cells = L1210 cells treated in vivo; untreated control mitotic index 3.2 to 5.8%; cited from earlier work
[7] = test system: L1210 mouse leukemia system; settings: in vivo; cited from earlier work
[8] = test system: human nasopharyngeal carcinoma cells; settings: cited from earlier work
[9] = test system: A431 cells constitutively expressing the antigen for huN901 (NCAM/CD56); test: in vitro cytotoxicity (colony formation) towards antigen-expressing cells; type: cell-based, human; settings: 5 to 7 days incubation; for IC50: surviving fraction, FIG. 1, read-out: IC50 in killing antigen positive cells
Method: The huN901-DM1 conjugates prepared by this new, one step method were evaluated for in vitro cytotoxicity towards antigen-expressing cells as follows. A clone of A431 cells constitutively expressing the antigen for huN901 (NCAM/CD56) were used in this assay. Cells were plated into 6-well tissue-culture treated plates at a density of 2×10^3 cells/well in 2 ml of DMEM medium supplemented with 10% fetal calf serum and penicillin+streptomycin. A huN901-DM1 conjugate or the control huN901 antibody was added to the wells at the time of plating, and the cultures were incubated in a tissue culture incubator at 37° C., 6% CO2, for 5 to 7 days to form colonies not smaller than 25 cells/colony. The plates were then washed with PBS, and then fixed/stained for 30 min at room temperature with 10% formaldehyde/0.2% (w/v) Crystal Violet in PBS. The wells were rinsed 3 times with water, dried by air, and the colonies were counted under a dissection low magnification microscope. The surviving fractions were calculated as the number of colonies in drug-treated well/number of colonies in non-treated well.

COc1cc2cc(c1Cl)N(C)C(=O)C[C@H](OC(=O)[C@H](C)N(C)C(C)=O)[C@]1(C)O[C@H]1[C@H](C)[C@@H]1C[C@@](O)(NC(=O)O1)[C@H](OC)/C=C/C=C(\C)C2 [maytansine]
dosage range over which tumor growth was inhibited [1]: 50- to 100 fold
doses at which cell suspensions were inhibited [2]: 10^−3 to 10^−1 μg/μl
concentrations at which the line was inhibited [3]: ≥ 10^−7 mg/ml
inhibitory activity [4]: significant inhibitory activity
inhibitory activity [5]: significant inhibitory activity
cytotoxicity relative to conventional cancer chemotherapeutic agents like methotrexate, daunorubicin, and vincristine [6]: 100 to 1000 fold
cells accumulating in mitosis (L1210 cells): 67%
inhibitory activity [7]: significant inhibitory activity
inhibition of in vitro growth [8]: active inhibitor

B1: huN901-DM1 conjugate (Sephadex G25): huN901 antibody conjugated in one step with maytansinoid 2, Sephadex G25 purified, average 2.08 DM1 per antibody (conjugate, chains of the INN, looked up)
VH: QVQLVESGGGVVQPGRSLRLSCAASGFTFSSFGMHWVRQAPGKGLEWVAYISSGSFTIYYADSVKGRFTISRDNSKNTLYLQMNSLRAEDTAVYYCARMRKGYAMDYWGQGTLVTVSS
VL: DVVMTQSPLSLPVTLGQPASISCRSSQIIIHSDGNTYLEWFQQRPGQSPRRLIYKVSNRFSGVPDRFSGSGSGTDFTLKISRVEAEDVGVYYCFQGSHVPHTFGQGTKVEIK
modifications: DM1 maytansinoid conjugate
notes: huN901 antibody conjugated in one step with maytansinoid 2, Sephadex G25 purified, average 2.08 DM1 per antibody
IC50 [9]: 0.1 nM

B2: huN901-DM1 conjugate (Sephacryl S300): huN901 antibody conjugated in one step with maytansinoid 2, Sephacryl S300 purified, average 1.61 DM1 per antibody (conjugate, chains of the INN, looked up)
VH: QVQLVESGGGVVQPGRSLRLSCAASGFTFSSFGMHWVRQAPGKGLEWVAYISSGSFTIYYADSVKGRFTISRDNSKNTLYLQMNSLRAEDTAVYYCARMRKGYAMDYWGQGTLVTVSS
VL: DVVMTQSPLSLPVTLGQPASISCRSSQIIIHSDGNTYLEWFQQRPGQSPRRLIYKVSNRFSGVPDRFSGSGSGTDFTLKISRVEAEDVGVYYCFQGSHVPHTFGQGTKVEIK
modifications: DM1 maytansinoid conjugate
notes: huN901 antibody conjugated in one step with maytansinoid 2, Sephacryl S300 purified, average 1.61 DM1 per antibody
IC50 [9]: 0.1 nM

B3: huN901: control unconjugated antibody whose antigen is NCAM/CD56 (antibody, chains of the INN, looked up, V domains shown)
VH: QVQLVESGGGVVQPGRSLRLSCAASGFTFSSFGMHWVRQAPGKGLEWVAYISSGSFTIYYADSVKGRFTISRDNSKNTLYLQMNSLRAEDTAVYYCARMRKGYAMDYWGQGTLVTVSS
VL: DVVMTQSPLSLPVTLGQPASISCRSSQIIIHSDGNTYLEWFQQRPGQSPRRLIYKVSNRFSGVPDRFSGSGSGTDFTLKISRVEAEDVGVYYCFQGSHVPHTFGQGTKVEIK
toxicity to antigen positive cells ([9]; FIG. 1): non-toxic
